Measured values reported in patent publication US20100292255A1, “Therapeutic Compounds and Their Use in Treating Diseases and Disorders” (Myriad Pharmaceuticals, Inc., priority 2007, published 2010).

Target: T1, purified human Hsp90
T1 construct: purified human Hsp90 (Stressgen, SPP-770)
Test: Hsp90 binding assay: displacement of BODIPY-labeled geldanamycin measured by fluorescence polarization
Settings: BODIPY-GM 10 nM, Hsp90 30 nM, overnight at room temperature; for IC50: read-out: GM displacement from purified Hsp90 measured by FP IC 50; for GM displacement from purified Hsp90 measured by FP Inhibition by 5 μM compd. (%): 5 μM compound
Protocol: Binding of the Example Compounds to purified Hsp90 was assayed by measuring the displacement of BODIPY-labeled geldanamycin (BODIPY-GM) from purified human Hsp90, using a fluorescence polarization assay adapted from Kim et al. (J. Biomolec. Screening, 9(5):375-381 (2004)). Compound dilutions (in 100% DMSO) were added to black-bottom 96-well plates (Greiner Bio-One, Monroe, N.C.) in 2% DMSO final, and equal volumes of BODIPY-GM (10 nM final) and purified human Hsp90 (Stressgen, SPP-770; 30 nM final) (Assay Designs, Ann Arbor, Mich.) in assay buffer (20 mM HEPES-KOH pH 7.3, 50 mM KCl, 5 mM MgCl2, 20 mM Na2MoO4, 0.01% NP-40, 0.1 mg/mL bovine gamma globulin [P2045; Invitrogen, Carlsbad, Calif.], 2 mM DTT) were added sequentially to yield a final volume of 50 microliters. Plates were incubated overnight at room temperature. Parallel and perpendicular fluorescence measurements were read (Analyst AD plate reader; LJL BioSystems, Middletown, Conn.) with excitation/emission wavelengths of 485/530 nm. Background fluorescence (buffer only) was subtracted, and fluorescence polarization (FP) values, expressed in mP units, were calculated from parallel and perpendicular fluorescence readings as follows:
FP=(parallel−perpendicular)/(parallel+perpendicular)*1000.
Percent inhibition was calculated by normalizing the FP values to those obtained in parallel reactions containing DMSO and subtracting these normalized values from 100%. Intrinsic compound fluorescence was independently monitored, and FP data points confounded by compound fluorescence were excluded from the analysis.

IC50	GM displacement from purified Hsp90 measured by FP Inhibition by 5 μM compd. (%)	SMILES
230 nM	–	N#Cc1cc2c(cc1Sc1nc3c(N)ncnc3n1CCC1CCN(C=O)CC1)CCC2=O [compound 1, 6-({6-Amino-9-[2-(1-formylpiperidin-4-yl)ethyl]-9H-purin-8-yl}thio)-3-oxoindane-5-carbonitrile]
–	24.0%	N#Cc1cc2c(cc1Sc1nc3c(N)ncn(CCC4CCN(C=O)CC4)c-3n1)CCC2=O [compound 2, 6-({6-amino-3-[2-(1-formylpiperidin-4-yl)ethyl]-3H-purin-8-yl}thio)-3-oxoindane-5-carbonitrile]
80 nM	–	COCCOCC(=O)N1CCC(CCn2c(Sc3cc4c(cc3Br)OCCO4)nc3c(N)ncnc32)CC1 [compound 3, 8-[(7-Bromo-2,3-dihydro-1,4-benzodioxin-6-yl)thio]-9-(2-{1-[(2-methoxyethoxy)acetyl]piperidin-4-yl}ethyl)-9H-purin-6-amine]
80 nM	–	CO[C@@H](C)C(=O)N1CCC(CCn2c(Sc3cc4c(cc3Br)OCCO4)nc3c(N)ncnc32)CC1 [compound 4, 8-[(7-Bromo-2,3-dihydro-1,4-benzodioxin-6-yl)thio]-9-(2-{1-[(2S)-2-methoxypropanoyl]piperidin-4-yl}ethyl)-9H-purin-6-amine]
63 nM	–	COCCC(=O)N1CCC(CCn2c(Sc3cc4c(cc3Br)OCCO4)nc3c(N)ncnc32)CC1 [compound 5, 8-[(7-Bromo-2,3-dihydro-1,4-benzodioxin-6-yl)thio]-9-{2-[1-(3-methoxypropanoyl)piperidin-4-yl]ethyl}-9H-purin-6-amine]
70 nM	–	COCC(=O)N1CCC(CCn2c(Sc3cc4c(cc3Br)OCCO4)nc3c(N)ncnc32)CC1 [compound 6, 8-[(7-Bromo-2,3-dihydro-1,4-benzodioxin-6-yl)thio]-9-{2-[1-(methoxyacetyl)piperidin-4-yl]ethyl}-9H-purin-6-amine]
95 nM	–	CO[C@H](C)C(=O)N1CCC(CCn2c(Sc3cc4c(cc3Br)OCCO4)nc3c(N)ncnc32)CC1 [compound 7, 8-[(7-Bromo-2,3-dihydro-1,4-benzodioxin-6-yl)thio]-9-(2-{1-[(2R)-2-methoxypropanoyl]piperidin-4-yl}ethyl)-9H-purin-6-amine]
90 nM	–	Nc1ncnc2c1nc(Sc1cc3c(cc1Br)OCCO3)n2CCC1CCN(C(=O)C2CC2(F)F)CC1 (stereo not shown) [compound 8, 8-[(7-Bromo-2,3-dihydro-1,4-benzodioxin-6-yl)thio]-9-(2-{1-[(2,2-difluorocyclopropyl)carbonyl]piperidin-4-yl}ethyl)-9H-purin-6-amine]
160 nM	–	CS(=O)(=O)N1CCCCC1CCn1c(Sc2cc3c(cc2Br)OCCO3)nc2c(N)ncnc21 (stereo not shown) [compound 10, 8-[(7-Bromo-2,3-dihydro-1,4-benzodioxin-6-yl)thio]-9-{2-[1-(methylsulfonyl)piperidin-2-yl]ethyl}-9H-purin-6-amine]
65 nM	–	CS(=O)(=O)N1CCCC(CCn2c(Sc3cc4c(cc3Br)OCCO4)nc3c(N)ncnc32)C1 (stereo not shown) [compound 12, 8-[(7-Bromo-2,3-dihydro-1,4-benzodioxin-6-yl)thio]-9-{2-[1-(methylsulfonyl)piperidin-3-yl]ethyl}-9H-purin-6-amine]
–	38.0%	CS(=O)(=O)N1CCCC(CCn2cnc(N)c3nc(Sc4cc5c(cc4Br)OCCO5)nc2-3)C1 (stereo not shown) [compound 13, 8-[(7-Bromo-2,3-dihydro-1,4-benzodioxin-6-yl)thio]-3-{2-[1-(methylsulfonyl)piperidin-3-yl]ethyl}-3H-purin-6-amine]
–	73.0%	CCCN1CCCCC1CCn1cnc(N)c2nc(Sc3cc4c(cc3Br)OCCO4)nc1-2 (stereo not shown) [compound 16, 8-[(7-Bromo-2,3-dihydro-1,4-benzodioxin-6-yl)thio]-3-[2-(1-propylpiperidin-2-yl)ethyl]-3H-purin-6-amine]
–	33.0%	CS(=O)(=O)N1CCC(CCn2cnc(N)c3nc(Sc4cc5c(cc4Br)OCCO5)nc2-3)CC1 [compound 17, 8-[(7-Bromo-2,3-dihydro-1,4-benzodioxin-6-yl)thio]-3-{2-[1-(methylsulfonyl)piperidin-4-yl]ethyl}-3H-purin-6-amine]
–	10.0%	COc1ccc(Br)c(Sc2nc3c(N)ncn(CCC4CCN(C(C)=O)CC4)c-3n2)c1 [compound 19, 3-[2-(1-Acetylpiperidin-4-yl)ethyl]-8-[(2-bromo-5-methoxyphenyl)thio]-3H-purin-6-amine]
–	46.0%	Cn1nnnc1N1CCC(CCn2cnc(N)c3nc(Sc4cc5c(cc4Br)OCCO5)nc2-3)CC1 [compound 22, 8-[(7-Bromo-2,3-dihydro-1,4-benzodioxin-6-yl)thio]-3-{2-[1-(1-methyl-1H-tetrazol-5-yl)piperidin-4-yl]ethyl}-3H-purin-6-amine]

Continued, compound first:

SMILES	IC50	GM displacement from purified Hsp90 measured by FP Inhibition by 5 μM compd. (%)
C[C@H](O)C(=O)N1CCC(CCn2c(Sc3cc4occc4cc3Br)nc3c(N)ncnc32)CC1 [Example Compound 199, (2S)-1-[4-(2-{6-Amino-8-[(5-bromo-1-benzofuran-6-yl)thio]-9H-purin-9-yl}ethyl)piperidin-1-yl]-1-oxopropan-2-ol]	190 nM	–
C[C@@H](OC(=O)C(C)(C)C)C(=O)N1CCC(CCn2c(Sc3cc4occc4cc3Br)nc3c(N)ncnc32)CC1 [Example Compound 200, (1R)-2-[4-(2-{6-Amino-8-[(5-bromo-1-benzofuran-6-yl)thio]-9H-purin-9-yl}ethyl)piperidin-1-yl]-1-methyl-2-oxoethyl pivalate]	185 nM	–
C[C@@H](O)C(=O)N1CCC(CCn2c(Sc3cc4occc4cc3Br)nc3c(N)ncnc32)CC1 [Example Compound 201, (2R)-1-[4-(2-{6-Amino-8-[(5-bromo-1-benzofuran-6-yl)thio]-9H-purin-9-yl}ethyl)piperidin-1-yl]-1-oxopropan-2-ol]	200 nM	–
C[C@H](O)C(=O)N1CCC(CCn2c(Sc3cc4c(cc3Cl)OCO4)nc3c(N)ncnc32)CC1 [Example Compound 203, (2S)-1-[4-(2-{6-Amino-8-[(6-chloro-1,3-benzodioxol-5-yl)thio]-9H-purin-9-yl}ethyl)piperidin-1-yl]-1-oxopropan-2-ol]	395 nM	–
C[C@@H](O)C(=O)N1CCC(CCn2c(Sc3cc4c(cc3Cl)OCO4)nc3c(N)ncnc32)CC1 [Example Compound 204, (2R)-1-[4-(2-{6-Amino-8-[(6-chloro-1,3-benzodioxol-5-yl)thio]-9H-purin-9-yl}ethyl)piperidin-1-yl]-1-oxopropan-2-ol]	400 nM	–
Nc1ncnc2c1nc(Sc1cc3c(cc1Cl)OCO3)n2CCC1CCN(C(=O)CO)CC1 [Example Compound 205, 2-[4-(2-{6-Amino-8-[(6-chloro-1,3-benzodioxol-5-yl)thio]-9H-purin-9-yl}ethyl)piperidin-1-yl]-2-oxoethanol]	497 nM	–
C[C@H](O)C(=O)N1CCCC[C@@H]1CCn1c(Sc2cc3c(cc2Br)OCO3)nc2c(N)ncnc21 [Example Compound 206, (2S)-1-[(2R)-2-(2-{6-Amino-8-[(6-bromo-1,3-benzodioxol-5-yl)thio]-9H-purin-9-yl}ethyl)piperidin-1-yl]-1-oxopropan-2-ol]	> 5000 nM	–
C[C@H](O)C(=O)N1CCCC[C@H]1CCn1c(Sc2cc3c(cc2Br)OCO3)nc2c(N)ncnc21 [Example Compound 207, (2S)-1-[(2S)-2-(2-{6-Amino-8-[(6-bromo-1,3-benzodioxol-5-yl)thio]-9H-purin-9-yl}ethyl)piperidin-1-yl]-1-oxopropan-2-ol]	> 5000 nM	–
COc1cc(Br)c(Sc2nc3c(N)ncnc3n2CCC2CCN(C(=O)[C@H](C)O)CC2)cc1OC [Example Compound 208, (2S)-1-[4-(2-{6-Amino-8-[(2-bromo-4,5-dimethoxyphenyl)thio]-9H-purin-9-yl}ethyl)piperidin-1-yl]-1-oxopropan-2-ol]	> 5000 nM	–
C[C@H](O)C(=O)N1CCC(CCn2c(Sc3cc(O)c(O)cc3Br)nc3c(N)ncnc32)CC1 [Example Compound 209, 4-{[6-Amino-9-(2-{1-[(2S)-2-hydroxypropanoyl]piperidin-4-yl}ethyl)-9H-purin-8-yl]thio}-5-bromobenzene-1,2-diol]	2100 nM	–
Nc1ncnc2c1nc(Sc1cc3c(cc1Br)OCO3)n2C1CCNCC1 [Example Compound 211, 8-[(6-Bromo-1,3-benzodioxol-5-yl)thio]-9-piperidin-4-yl-9H-purin-6-amine]	950 nM	–
C[C@H](O)C(=O)N1CCC(n2c(Sc3cc4c(cc3Br)OCO4)nc3c(N)ncnc32)CC1 [Example Compound 212, (2S)-1-(4-{6-amino-8-[(6-bromo-1,3-benzodioxol-5-yl)thio]-9H-purin-9-yl}piperidin-1-yl)-1-oxopropan-2-ol]	350 nM	–
Nc1ncnc2c1nc(Sc1cc3c(cc1Br)OCO3)n2C1CCN(C=O)CC1 [Example Compound 213, 4-{6-Amino-8-[(6-bromo-1,3-benzodioxol-5-yl)thio]-9H-purin-9-yl}piperidine-1-carbaldehyde]	580 nM	–
